Results reported in ChEMBL document CHEMBL2021921 (Bioorg Med Chem Lett, 2012).
Calls of active or inactive are those of the source. The rule behind the calls is not given here. Where a SMILES comes first, the peptide text is derived from it. [ ]: non-standard residue; d: D form. The star is where a group is joined. Adenosine(5'-uronoyl) = Nc1ncnc2c1ncn2[C@@H]1O[C@H](C(=O)*)[C@@H](O)[C@H]1O; X1 = Nc1nccc(-c2ccc(C(=O)*)s2)n1; Ahx = NCCCCCC(=O)O

Tests used:
[1] = biological target: T1, Rho-associated protein kinase 2 (Homo sapiens, UniProt O75116); test: Displacement of fluorescent-ARC-1042 from His6-tagged recombinant human ROCK2 by fluorescence anisotropy assay
Target sequence in this assay (O75116 whole entry): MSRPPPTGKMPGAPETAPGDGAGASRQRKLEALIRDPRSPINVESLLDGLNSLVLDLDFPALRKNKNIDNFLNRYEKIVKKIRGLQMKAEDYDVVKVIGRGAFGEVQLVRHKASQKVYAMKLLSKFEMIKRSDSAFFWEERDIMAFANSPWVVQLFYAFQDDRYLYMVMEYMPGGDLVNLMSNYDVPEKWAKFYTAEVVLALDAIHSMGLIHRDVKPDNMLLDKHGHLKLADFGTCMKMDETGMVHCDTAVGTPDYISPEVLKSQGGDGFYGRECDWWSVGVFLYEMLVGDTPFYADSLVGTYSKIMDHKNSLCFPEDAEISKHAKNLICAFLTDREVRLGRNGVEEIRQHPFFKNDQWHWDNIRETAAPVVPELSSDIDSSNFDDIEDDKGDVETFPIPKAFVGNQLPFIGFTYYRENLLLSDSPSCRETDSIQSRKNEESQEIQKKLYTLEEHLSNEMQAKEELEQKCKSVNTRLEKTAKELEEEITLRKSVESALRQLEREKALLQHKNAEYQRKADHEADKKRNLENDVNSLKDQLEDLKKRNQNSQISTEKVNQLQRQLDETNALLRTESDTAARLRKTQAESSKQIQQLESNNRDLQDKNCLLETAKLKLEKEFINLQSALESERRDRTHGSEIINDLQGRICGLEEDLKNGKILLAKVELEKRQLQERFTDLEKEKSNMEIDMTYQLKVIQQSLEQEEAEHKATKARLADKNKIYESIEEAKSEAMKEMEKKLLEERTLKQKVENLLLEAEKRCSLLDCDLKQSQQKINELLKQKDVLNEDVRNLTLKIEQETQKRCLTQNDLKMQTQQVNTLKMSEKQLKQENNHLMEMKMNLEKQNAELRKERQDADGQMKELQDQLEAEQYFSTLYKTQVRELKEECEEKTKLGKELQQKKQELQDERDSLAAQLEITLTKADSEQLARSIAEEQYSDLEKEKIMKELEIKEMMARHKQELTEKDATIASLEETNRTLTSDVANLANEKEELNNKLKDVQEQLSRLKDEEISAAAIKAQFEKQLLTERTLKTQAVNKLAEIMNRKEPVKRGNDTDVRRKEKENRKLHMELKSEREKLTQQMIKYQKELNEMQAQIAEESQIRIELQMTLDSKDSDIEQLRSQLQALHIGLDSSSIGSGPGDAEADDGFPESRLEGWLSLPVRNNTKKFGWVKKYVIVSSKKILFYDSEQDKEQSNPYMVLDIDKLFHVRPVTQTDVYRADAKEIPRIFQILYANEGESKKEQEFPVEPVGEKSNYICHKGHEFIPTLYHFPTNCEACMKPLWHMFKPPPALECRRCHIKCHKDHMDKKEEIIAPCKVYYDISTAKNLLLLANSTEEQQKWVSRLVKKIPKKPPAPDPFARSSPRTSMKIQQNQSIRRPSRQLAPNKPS

[2] = Displacement of fluorescent-ARC-1063 from recombinant bovine PKAc by luminescence intensity assay; set-up: species or system Bos taurus
[3] = Displacement of fluorescent-ARC-583 from recombinant bovine PKAc by fluorescence anisotropy assay; set-up: species or system Bos taurus
[4] = Selectivity ratio of Kd for His6-tagged recombinant human ROCK2 to Kd for recombinant bovine PKAc
[5] = biological target: T1, Rho-associated protein kinase 2; test: Displacement of fluorescent-ARC-1063 from His6-tagged recombinant human ROCK2 by luminescence intensity assay
Target sequence in this assay (O75116 whole entry): as above

[6] = Displacement of fluorescent-ARC-583/ARC-1042/ARC-1059 from His6-tagged recombinant human PKCeta S472D mutant by fluorescence anisotropy assay
[7] = biological target: Ribosomal protein S6 kinase alpha-5 (Homo sapiens, UniProt O75582); test: Displacement of fluorescent-ARC-583/ARC-1042/ARC-1059 from His6-tagged recombinant human MSK1 by fluorescence anisotropy assay
[8] = biological target: T2, cGMP-dependent protein kinase 1 (Homo sapiens, UniProt Q13976); test: Displacement of fluorescent-ARC-583/ARC-1042/ARC-1059 from His6-tagged recombinant human PKG1alpha by fluorescence anisotropy assay
T2 sequence (Q13976 whole entry): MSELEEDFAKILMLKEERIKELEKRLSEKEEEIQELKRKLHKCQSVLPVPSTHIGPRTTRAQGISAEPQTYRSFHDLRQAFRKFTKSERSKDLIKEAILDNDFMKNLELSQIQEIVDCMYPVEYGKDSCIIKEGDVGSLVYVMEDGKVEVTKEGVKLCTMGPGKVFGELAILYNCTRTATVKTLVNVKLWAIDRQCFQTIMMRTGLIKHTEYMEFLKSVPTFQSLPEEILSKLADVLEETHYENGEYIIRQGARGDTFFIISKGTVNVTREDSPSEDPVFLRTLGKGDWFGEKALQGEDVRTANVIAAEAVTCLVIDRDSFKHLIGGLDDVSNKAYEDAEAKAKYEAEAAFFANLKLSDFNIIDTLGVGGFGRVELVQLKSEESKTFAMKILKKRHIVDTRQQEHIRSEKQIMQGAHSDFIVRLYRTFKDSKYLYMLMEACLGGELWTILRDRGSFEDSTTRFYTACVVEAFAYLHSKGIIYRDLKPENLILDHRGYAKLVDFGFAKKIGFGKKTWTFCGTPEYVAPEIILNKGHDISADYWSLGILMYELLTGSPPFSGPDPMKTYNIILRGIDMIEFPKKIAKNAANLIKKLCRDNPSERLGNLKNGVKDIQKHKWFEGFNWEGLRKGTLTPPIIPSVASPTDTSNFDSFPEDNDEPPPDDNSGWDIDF

[9] = biological target: RAC-gamma serine/threonine-protein kinase (Homo sapiens, UniProt Q9Y243, S472D); test: Displacement of fluorescent-ARC-583/ARC-1042/ARC-1059 from His6-tagged recombinant human AKT3 S472D mutant by fluorescence anisotropy assay
[10] = biological target: Ribosomal protein S6 kinase beta-1 (Homo sapiens, UniProt P23443); test: Displacement of fluorescent-ARC-583/ARC-1042/ARC-1059 from His6-tagged recombinant human p70S6K by fluorescence anisotropy assay
[11] = biological target: T1, Rho-associated protein kinase 2; test: Displacement of fluorescent-ARC-583/ARC-1042/ARC-1059 from His6-tagged recombinant human ROCK2 by fluorescence anisotropy assay
Target sequence in this assay (O75116 whole entry): as the sequence (O75116 whole entry) above

[12] = Displacement of fluorescent-ARC-583/ARC-1042/ARC-1059 from recombinant bovine PKAc by fluorescence anisotropy assay; set-up: species or system Bos taurus
[13] = Binding affinity to PKAc
[14] = Binding affinity to PKG
[15] = Inhibition of catalytic subunit of PKA
[16] = Inhibition of PKC
[17] = biological target: T1, Rho-associated protein kinase 2; test: Displacement of fluorescent-ARC-1063 from His6-tagged recombinant human ROCK2 by fluorescence anisotropy assay
Target sequence in this assay (O75116 whole entry, looked up): as the sequence (O75116 whole entry) above

Bos taurus = species on record: Bos taurus; test: Displacement of fluorescent-ARC-1063 from recombinant bovine PKAc by fluorescence anisotropy assay

Sequence of Ribosomal protein S6 kinase alpha-5 (O75582 whole entry): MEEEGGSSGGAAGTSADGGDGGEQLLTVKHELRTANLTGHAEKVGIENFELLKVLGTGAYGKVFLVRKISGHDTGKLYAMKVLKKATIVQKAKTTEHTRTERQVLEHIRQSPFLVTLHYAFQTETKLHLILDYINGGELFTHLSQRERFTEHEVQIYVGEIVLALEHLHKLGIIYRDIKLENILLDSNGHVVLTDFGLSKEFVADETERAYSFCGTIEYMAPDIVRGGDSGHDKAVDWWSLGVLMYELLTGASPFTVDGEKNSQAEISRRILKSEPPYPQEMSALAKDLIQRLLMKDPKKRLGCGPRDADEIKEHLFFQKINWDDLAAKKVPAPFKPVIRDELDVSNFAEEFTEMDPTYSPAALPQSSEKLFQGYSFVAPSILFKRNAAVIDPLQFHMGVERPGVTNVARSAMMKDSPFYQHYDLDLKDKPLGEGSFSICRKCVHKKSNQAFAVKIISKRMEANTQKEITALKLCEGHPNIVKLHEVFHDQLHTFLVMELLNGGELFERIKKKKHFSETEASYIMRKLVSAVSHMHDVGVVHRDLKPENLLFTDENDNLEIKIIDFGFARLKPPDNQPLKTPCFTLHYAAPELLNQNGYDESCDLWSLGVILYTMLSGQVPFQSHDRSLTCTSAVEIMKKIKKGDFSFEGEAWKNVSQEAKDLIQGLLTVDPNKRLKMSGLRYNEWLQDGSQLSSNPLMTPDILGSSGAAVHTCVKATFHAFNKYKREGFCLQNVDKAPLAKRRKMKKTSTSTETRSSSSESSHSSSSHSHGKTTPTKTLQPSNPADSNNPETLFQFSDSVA
Sequence of Ribosomal protein S6 kinase beta-1 (P23443 whole entry): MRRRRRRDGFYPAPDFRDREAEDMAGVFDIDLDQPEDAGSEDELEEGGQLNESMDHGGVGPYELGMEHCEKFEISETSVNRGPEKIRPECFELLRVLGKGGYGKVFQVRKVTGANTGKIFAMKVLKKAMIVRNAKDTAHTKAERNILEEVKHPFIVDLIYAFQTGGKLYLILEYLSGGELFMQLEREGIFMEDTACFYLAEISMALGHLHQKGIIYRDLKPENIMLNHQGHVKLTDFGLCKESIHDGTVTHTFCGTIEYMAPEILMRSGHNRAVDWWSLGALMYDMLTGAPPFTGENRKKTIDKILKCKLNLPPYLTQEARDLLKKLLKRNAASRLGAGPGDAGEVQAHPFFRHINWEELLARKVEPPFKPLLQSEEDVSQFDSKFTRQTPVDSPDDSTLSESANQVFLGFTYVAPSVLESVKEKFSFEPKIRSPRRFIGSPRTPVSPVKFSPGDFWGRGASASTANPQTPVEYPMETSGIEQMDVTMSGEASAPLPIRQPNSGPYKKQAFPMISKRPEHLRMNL
Sequence of RAC-gamma serine/threonine-protein kinase (Q9Y243 2-479 S472D limits assumed): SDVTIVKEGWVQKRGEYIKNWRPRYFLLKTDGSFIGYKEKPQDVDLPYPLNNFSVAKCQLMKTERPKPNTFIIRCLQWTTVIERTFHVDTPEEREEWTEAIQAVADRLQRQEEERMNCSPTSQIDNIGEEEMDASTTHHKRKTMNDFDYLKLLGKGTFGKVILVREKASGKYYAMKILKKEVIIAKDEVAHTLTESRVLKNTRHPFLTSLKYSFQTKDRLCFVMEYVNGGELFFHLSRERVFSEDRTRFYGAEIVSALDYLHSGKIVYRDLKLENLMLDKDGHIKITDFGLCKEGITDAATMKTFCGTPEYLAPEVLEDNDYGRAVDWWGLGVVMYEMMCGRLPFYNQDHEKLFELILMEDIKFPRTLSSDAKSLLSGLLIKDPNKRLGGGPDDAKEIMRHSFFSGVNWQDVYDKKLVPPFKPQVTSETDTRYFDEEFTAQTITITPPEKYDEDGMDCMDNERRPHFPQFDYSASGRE

N=C(N)NCCC[C@@H](NC(=O)[C@@H](CCCNC(=N)N)NC(=O)CNCC(=O)NCCNS(=O)(=O)c1cccc2cnccc12)C(N)=O
pIC50 [1]: > 4.5

N=C(N)NCCC[C@@H](NC(=O)[C@@H](CCCNC(=N)N)NC(=O)CCCCCNC(=O)[C@@H](CCCCN)NC(=O)CCCCCNC(=O)[C@H]1O[C@@H](n2cnc3c(N)ncnc32)[C@H](O)[C@@H]1O)C(N)=O
Kd [2]: 4.5 nM | pIC50 [2]: 4.87 | Kd [3]: 8.9 nM | pIC50 [3]: 7.22 | Selectivity Index [4]: 0.7

NCCCC[C@@H](NC(=O)CCCCCNC(=O)[C@H]1O[C@@H](n2cnc3c(N)ncnc32)[C@H](O)[C@@H]1O)C(=O)NCCCCCC(=O)N[C@H](CCCN=C(N)N)C(=O)N[C@H](CCCN=C(N)N)C(N)=O
IC50 [5]: 977 nM | Kd [5]: 6.4 nM | IC50 [1]: 162 nM | Kd [1]: 7 nM

N=C(N)NCCC[C@@H](NC(=O)[C@@H](CCCNC(=N)N)NC(=O)[C@@H](CCCNC(=N)N)NC(=O)[C@@H](CCCNC(=N)N)NC(=O)[C@@H](CCCNC(=N)N)NC(=O)[C@@H](CCCNC(=N)N)NC(=O)CCCCCNC(=O)[C@H]1O[C@@H](n2cnc3c(N)ncnc32)[C@H](O)[C@@H]1O)C(N)=O
Kd [2]: 0.25 nM | pIC50 [2]: 6.12

N=C(N)NCCC[C@@H](NC(=O)[C@@H](CCCNC(=N)N)NC(=O)[C@@H](CCCNC(=N)N)NC(=O)[C@@H](CCCNC(=N)N)NC(=O)[C@@H](CCCNC(=N)N)NC(=O)[C@@H](CCCNC(=N)N)NC(=O)CCCCCNCCNS(=O)(=O)c1cccc2cnccc12)C(N)=O
Kd [6]: 980 nM | pIC50 [6]: 5.76 | IC50 [7]: 81.3 nM | Kd [7]: 26 nM | Kd [3]: 0.53 nM | pIC50 [3]: 8.26 | IC50 [8]: 41.7 nM | Kd [8]: 13 nM | IC50 [9]: 72.4 nM | Kd [9]: 55 nM | IC50 [10]: 6.46 nM | Kd [10]: < 1 nM | IC50 [11]: 2.45 nM | Kd [11]: < 0.5 nM | Kd [12]: < 1 nM | pIC50 [12]: 8.26 | IC50 [1]: 2.45 nM | Kd [1]: < 0.5 nM

N=C(N)NCCC[C@@H](NC(=O)[C@@H](CCCNC(=N)N)NC(=O)[C@@H](CCCNC(=N)N)NC(=O)[C@@H](CCCNC(=N)N)NC(=O)[C@@H](CCCNC(=N)N)NC(=O)[C@@H](CCCNC(=N)N)NC(=O)CNCC(=O)NCCNS(=O)(=O)c1cccc2cnccc12)C(N)=O
Kd [3]: 120 nM | pIC50 [3]: 6.1 | IC50 [1]: 151 nM | Kd [1]: 6.4 nM

N=C(N)NCCC[C@@H](NC(=O)[C@@H](CCCNC(=N)N)NC(=O)CCCCCNC(=O)[C@@H](CCCCN)NC(=O)CCCCCCCN1CCCN(S(=O)(=O)c2cccc3cnccc23)CC1)C(N)=O
pIC50 [6]: > 5 | Kd [2]: 25 nM | pIC50 [2]: 4.12 | Selectivity Index [4]: 0.56 | Kd [12]: 83 nM | pIC50 [12]: 6.16

N=C(N)NCCC[C@@H](NC(=O)[C@@H](CCCNC(=N)N)NC(=O)[C@@H](CCCNC(=N)N)NC(=O)[C@@H](CCCNC(=N)N)NC(=O)[C@@H](CCCNC(=N)N)NC(=O)[C@@H](CCCNC(=N)N)NC(=O)CCCCCNC(=O)[C@@H](CCCCN)NC(=O)CCCCCNC(=O)[C@H]1O[C@@H](n2cnc3c(N)ncnc32)[C@H](O)[C@@H]1O)C(N)=O ({Adenosine(5'-uronoyl)-Ahx}-[dK][Ahx][dR][dR][dR][dR][dR][dR]-NH2)
Kd [2]: 0.26 nM | pIC50 [2]: 6.12 | Selectivity Index [4]: 12 | IC50 [5]: 10.5 nM | Kd [5]: 0.021 nM

O=S(=O)(NCCNC/C=C/c1ccc(Br)cc1)c1cccc2cnccc12
Kd [2]: 17 nM | pIC50 [2]: 4.3

N=C(N)NCCC[C@@H](NC(=O)[C@@H](CCCNC(=N)N)NC(=O)[C@@H](CCCNC(=N)N)NC(=O)[C@@H](CCCNC(=N)N)NC(=O)[C@@H](CCCNC(=N)N)NC(=O)[C@@H](CCCNC(=N)N)NC(=O)CCCCCNC(=O)[C@@H](CCCCN)NC(=O)CNCC(=O)NCCNS(=O)(=O)c1cccc2cnccc12)C(N)=O
Kd [3]: 130 nM | pIC50 [3]: 6.07 | IC50 [1]: 34.7 nM | Kd [1]: 1.5 nM

NCCNS(=O)(=O)c1cccc2cnccc12
Ki [13]: 1900 nM | Ki [14]: 800 nM

N=C(N)NCCC[C@H](NC(=O)[C@H](CCCNC(=N)N)NC(=O)[C@H](CCCNC(=N)N)NC(=O)[C@H](CCCNC(=N)N)NC(=O)[C@H](CCCNC(=N)N)NC(=O)[C@H](CCCNC(=N)N)NC(=O)[C@H](CO)NC(=O)CCNCCNS(=O)(=O)c1cccc2cnccc12)C(N)=O
IC50 [15]: 3 nM | IC50 [16]: 300 nM

N=C(N)NCCC[C@@H](NC(=O)[C@@H](CCCNC(=N)N)NC(=O)[C@@H](CCCNC(=N)N)NC(=O)[C@@H](CCCNC(=N)N)NC(=O)[C@@H](CCCNC(=N)N)NC(=O)[C@@H](CCCNC(=N)N)NC(=O)CCCCCNC(=O)[C@@H](CCCCN)NC(=O)CCNC(=O)CNCC(=O)NCCNS(=O)(=O)c1cccc2cnccc12)C(N)=O
Kd [3]: 24 nM | pIC50 [3]: 6.79 | IC50 [1]: 17.8 nM | Kd [1]: 0.7 nM

NCCCC[C@@H](NC(=O)CCCCCCCN1CCCN(S(=O)(=O)c2cccc3cnccc23)CC1)C(=O)NCCCCCC(=O)N[C@H](CCCN=C(N)N)C(=O)N[C@H](CCCN=C(N)N)C(N)=O
IC50 [7]: 4570 nM | Kd [7]: 1600 nM | IC50 [8]: 1860 nM | Kd [8]: 630 nM | IC50 [9]: 9120 nM | Kd [9]: 7100 nM | IC50 [10]: 3310 nM | Kd [10]: 860 nM | IC50 [11]: 631 nM | Kd [11]: 27 nM | IC50 [5]: 6760 nM | Kd [5]: 45 nM

N=C(N)NCCC[C@@H](NC(=O)[C@@H](CCCNC(=N)N)NC(=O)CCCCCNC(=O)[C@H](CCCCN)NC(=O)CNCC(=O)NCCNS(=O)(=O)c1cccc2cnccc12)C(N)=O
pIC50 [3]: > 4.5 | IC50 [1]: 16200 nM | Kd [1]: 690 nM

N=C(N)NCCC[C@@H](NC(=O)[C@@H](CCCNC(=N)N)NC(=O)CCCCCNC(=O)[C@@H](CCCCN)NC(=O)CNCC(=O)NCCNS(=O)(=O)c1cccc2cnccc12)C(N)=O
Kd [3]: 2500 nM | pIC50 [3]: 4.78 | pIC50 [1]: > 4.5

N=C(N)NCCC[C@@H](NC(=O)[C@@H](CCCNC(=N)N)NC(=O)[C@@H](CCCNC(=N)N)NC(=O)[C@@H](CCCNC(=N)N)NC(=O)[C@@H](CCCNC(=N)N)NC(=O)[C@@H](CCCNC(=N)N)NC(=O)CCCCCNC(=O)[C@@H](CCCCN)NC(=O)CCCCCCCN1CCCN(S(=O)(=O)c2cccc3cnccc23)CC1)C(N)=O
Kd [2]: 3.3 nM | pIC50 [2]: 5.01 | Selectivity Index [4]: 165 | inhibition [17]: Active | IC50 [5]: 10.2 nM | Kd [5]: 0.02 nM | inhibition (Bos taurus): Active

O=S(=O)(c1cccc2cnccc12)N1CCCNCC1 [FASUDIL]
Kd [2]: 420 nM | pIC50 [2]: 4.26

N=C(N)NCCC[C@@H](NC(=O)[C@@H](CCCNC(=N)N)NC(=O)[C@@H](CCCNC(=N)N)NC(=O)[C@@H](CCCNC(=N)N)NC(=O)[C@@H](CCCNC(=N)N)NC(=O)[C@@H](CCCNC(=N)N)NC(=O)CCCCCNC(=O)[C@@H](CCCCN)NC(=O)CCCCCNC(=O)c1ccc(-c2ccnc(N)n2)s1)C(N)=O ({X1-Ahx}-[dK][Ahx][dR][dR][dR][dR][dR][dR]-NH2)
Kd [2]: 0.056 nM | pIC50 [2]: 6.78 | Selectivity Index [4]: 10

NCCCC[C@@H](NC(=O)CCCCCNC(=O)c1ccc(-c2ccnc(N)n2)s1)C(=O)NCCCCCC(=O)N[C@H](CCCN=C(N)N)C(=O)N[C@H](CCCN=C(N)N)C(=O)N[C@H](CCCN=C(N)N)C(=O)N[C@H](CCCN=C(N)N)C(=O)N[C@H](CCCN=C(N)N)C(=O)N[C@H](CCCN=C(N)N)C(N)=O ({X1-Ahx}-[dK][Ahx][dR][dR][dR][dR][dR][dR]-NH2)
IC50 [5]: 2.75 nM | Kd [5]: 0.0056 nM
